From patent US20240383900A1, “SUBSTITUTED PYRAZOLO [1,5-A]PYRIMIDINE-7-AMINE COMPOUNDS AS CDK INHIBITORS AND THEIR THERAPEUTIC USE” (Carrick Therapeutics Limited, priority 2021, published 2024)
Where two headings read alike, the source gives them in different places.

Experiments:
A673 cells [1] = experiment: A673 cytotoxic potency shift in the presence of MLN4924 (cyclin K degrader activity); format: cell-based; conditions: 30 nM MLN4924, 72 hours
Description: Inhibition of cell viability by test compounds was assessed in A673 cells (ATCC CRL-1598) and the compound mode of action was attributed to a “molecular-glue”/cyclin K-degradation mechanism by probing for a loss of compound potency in the presence of the NEDD8-activating enzyme inhibitor, MLN4924.
Cells were plated in 96-well plates at a density of […] viable cells per well in 200 μL fully supplemented growth medium (DMEM+10% heat inactivated foetal bovine serum) and incubated for 24 hours in standard tissue culture conditions. Compounds, including MLN4924, were solubilised in DMSO and then diluted in fully supplemented growth medium at 2× their final assay concentration such that the final DMSO concentration was 0.1%. Growth medium in the assay plates was replaced with 50 μL of growth medium containing 2×MLN4924 (final assay concentration: 30 nM, where tested) or vehicle only and 50 μL of growth medium containing a 2× compound concentration series or vehicle only such that each compound was at 1× final assay concentration in 100 μL.
Cells were then incubated for 72 hours in standard tissue culture conditions before viability was assessed using 50 μL Cell Titer Glo reagent (Promega) per well and luminescence measured on an EnVision plate reader. Data were normalised to vehicle control (100%) and cells treated with 0.1% Triton x-100 for 1 hour before viability measurement (0%; full cell kill). IC50 values were determined using a semi-logistic curve fit with parameters “top” fixed at 100% and “bottom” at or below 0%. Viability curves generated in the presence of MLN4924 were normalised and fixed to controls treated with MLN4924.

A673 cells [2] = experiment: Cytotoxicity in A673 cells (Cell Titer Glo viability); format: cell-based; conditions: for Ratio of Biochemical Potency:Cellular Potency: CDK12 IC50 / A673 IC50; for IC50: Homo sapiens
Procedure, shortened: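 Cells plated at 1.2×10^5 per well in DMEM+10% FBS, 24 h, then compound series ± MLN4924 (30 nM final) in 0.1% DMSO for 72 h. Viability by Cell Titer Glo luminescence, normalised to vehicle (100%) and 0.1% Triton x-100 (0%); MLN4924 curves normalised to MLN4924-treated controls.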

Human CDK12 wt/CycK = Human CDK12 wt/CycK (Homo sapiens (Human), UniProt Q9NYV4); experiment: Radiometric protein kinase assay (33PanQinase Activity Assay), CDK12; format: biochemical; conditions: for CDK7/CDK12: ratio of CDK7 IC50 to CDK12 IC50, greater than 1 indicates selectivity for CDK12
Human CDK12 wt/CycK, sequence (Q9NYV4 whole entry): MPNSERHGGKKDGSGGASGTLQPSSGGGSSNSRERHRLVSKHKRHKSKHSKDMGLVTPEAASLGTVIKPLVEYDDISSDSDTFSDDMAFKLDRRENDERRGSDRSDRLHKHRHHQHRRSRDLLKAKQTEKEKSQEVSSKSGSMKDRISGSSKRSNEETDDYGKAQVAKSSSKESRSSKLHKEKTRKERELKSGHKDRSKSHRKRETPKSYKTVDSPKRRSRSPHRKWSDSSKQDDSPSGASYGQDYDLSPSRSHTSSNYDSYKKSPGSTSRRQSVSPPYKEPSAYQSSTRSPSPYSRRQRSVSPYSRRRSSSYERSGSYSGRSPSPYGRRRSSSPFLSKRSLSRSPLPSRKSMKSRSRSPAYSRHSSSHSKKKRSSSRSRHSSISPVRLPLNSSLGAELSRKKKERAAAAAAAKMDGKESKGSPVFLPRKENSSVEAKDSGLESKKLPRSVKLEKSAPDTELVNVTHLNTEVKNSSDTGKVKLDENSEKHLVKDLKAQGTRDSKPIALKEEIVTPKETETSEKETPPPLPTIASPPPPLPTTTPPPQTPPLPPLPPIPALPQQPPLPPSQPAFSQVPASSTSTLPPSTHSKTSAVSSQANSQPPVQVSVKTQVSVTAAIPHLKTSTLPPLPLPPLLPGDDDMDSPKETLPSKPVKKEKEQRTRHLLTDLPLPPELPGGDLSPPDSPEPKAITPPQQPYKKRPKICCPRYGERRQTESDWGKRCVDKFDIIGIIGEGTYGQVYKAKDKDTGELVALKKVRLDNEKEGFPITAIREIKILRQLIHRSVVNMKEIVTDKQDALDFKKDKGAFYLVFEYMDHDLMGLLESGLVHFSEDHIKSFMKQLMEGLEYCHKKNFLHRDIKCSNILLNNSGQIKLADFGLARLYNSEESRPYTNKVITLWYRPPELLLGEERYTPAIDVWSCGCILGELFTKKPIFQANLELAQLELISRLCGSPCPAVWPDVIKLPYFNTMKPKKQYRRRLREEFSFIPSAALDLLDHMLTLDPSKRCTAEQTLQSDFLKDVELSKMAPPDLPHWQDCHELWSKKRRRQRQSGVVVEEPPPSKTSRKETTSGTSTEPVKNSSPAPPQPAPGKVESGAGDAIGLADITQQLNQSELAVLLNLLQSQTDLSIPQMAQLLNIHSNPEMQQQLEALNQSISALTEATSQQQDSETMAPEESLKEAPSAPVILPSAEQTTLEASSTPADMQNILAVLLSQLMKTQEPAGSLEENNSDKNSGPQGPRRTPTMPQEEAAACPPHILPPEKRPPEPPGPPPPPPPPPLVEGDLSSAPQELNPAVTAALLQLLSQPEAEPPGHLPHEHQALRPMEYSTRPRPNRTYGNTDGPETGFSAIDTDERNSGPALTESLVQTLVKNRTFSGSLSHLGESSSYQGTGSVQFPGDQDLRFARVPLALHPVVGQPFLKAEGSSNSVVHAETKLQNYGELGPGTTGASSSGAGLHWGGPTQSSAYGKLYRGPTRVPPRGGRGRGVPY
Human CDK12 wt/CycK, sequence (O75909 whole entry partner): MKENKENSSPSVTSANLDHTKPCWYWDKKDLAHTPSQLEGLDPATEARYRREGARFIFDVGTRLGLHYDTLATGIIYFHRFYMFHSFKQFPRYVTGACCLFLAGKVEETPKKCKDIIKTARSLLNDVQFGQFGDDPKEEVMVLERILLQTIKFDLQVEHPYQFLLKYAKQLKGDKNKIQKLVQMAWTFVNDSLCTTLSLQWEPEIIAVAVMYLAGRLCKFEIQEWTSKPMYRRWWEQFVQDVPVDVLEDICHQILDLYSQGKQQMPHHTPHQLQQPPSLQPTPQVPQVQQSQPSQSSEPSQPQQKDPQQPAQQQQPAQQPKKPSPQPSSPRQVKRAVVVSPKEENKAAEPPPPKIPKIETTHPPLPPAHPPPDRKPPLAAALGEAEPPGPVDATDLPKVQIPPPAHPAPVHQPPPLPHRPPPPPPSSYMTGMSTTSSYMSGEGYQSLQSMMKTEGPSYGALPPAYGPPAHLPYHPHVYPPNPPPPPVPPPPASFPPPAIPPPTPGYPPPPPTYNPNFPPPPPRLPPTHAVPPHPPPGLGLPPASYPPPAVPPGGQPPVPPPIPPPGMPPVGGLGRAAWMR
Procedure, shortened: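 Radiometric 33P assay: ATP, test compound (in 10% DMSO) and premixed substrate/enzyme incubated 60 min at 30 °C, stopped with 2% H3PO4. 33Pi incorporation counted by scintillation; least-squares curve fit.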

Human CDK7/CycH/MAT1 = Human CDK7/CycH/MAT1 (Homo sapiens (Human), UniProt P50613); experiment: Radiometric protein kinase assay (33PanQinase Activity Assay), CDK7; format: biochemical; conditions: ATP 3 μM
Human CDK7/CycH/MAT1, sequence (P50613 whole entry): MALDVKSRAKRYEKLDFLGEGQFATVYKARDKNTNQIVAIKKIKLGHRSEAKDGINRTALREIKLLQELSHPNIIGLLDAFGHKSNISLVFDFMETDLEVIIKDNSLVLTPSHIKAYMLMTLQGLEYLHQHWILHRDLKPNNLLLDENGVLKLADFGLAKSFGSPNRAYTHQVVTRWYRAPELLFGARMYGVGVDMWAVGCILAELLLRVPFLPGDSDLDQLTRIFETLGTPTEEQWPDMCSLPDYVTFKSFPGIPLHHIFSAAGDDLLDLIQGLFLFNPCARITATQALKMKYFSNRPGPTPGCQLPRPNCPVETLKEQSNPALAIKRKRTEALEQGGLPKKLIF
Human CDK7/CycH/MAT1, sequence (P51946 whole entry partner): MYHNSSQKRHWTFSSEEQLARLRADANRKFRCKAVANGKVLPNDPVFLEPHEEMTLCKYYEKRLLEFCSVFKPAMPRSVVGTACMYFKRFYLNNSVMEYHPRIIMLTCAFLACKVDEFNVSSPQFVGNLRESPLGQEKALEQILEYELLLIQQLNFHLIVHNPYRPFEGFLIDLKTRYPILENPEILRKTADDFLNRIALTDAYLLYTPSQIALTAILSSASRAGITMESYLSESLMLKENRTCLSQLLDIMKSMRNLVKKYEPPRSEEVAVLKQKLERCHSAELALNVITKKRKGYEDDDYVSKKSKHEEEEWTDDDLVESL
Human CDK7/CycH/MAT1, sequence (P51948 whole entry partner): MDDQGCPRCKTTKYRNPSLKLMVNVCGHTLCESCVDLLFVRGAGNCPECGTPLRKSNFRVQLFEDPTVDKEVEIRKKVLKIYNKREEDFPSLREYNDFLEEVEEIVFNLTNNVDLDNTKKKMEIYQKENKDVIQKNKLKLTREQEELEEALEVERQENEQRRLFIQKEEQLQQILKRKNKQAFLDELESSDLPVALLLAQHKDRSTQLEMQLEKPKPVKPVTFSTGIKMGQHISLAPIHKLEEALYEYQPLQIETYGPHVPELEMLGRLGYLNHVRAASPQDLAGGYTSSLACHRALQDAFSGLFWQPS

[3] = A673, read-out: Cellular Potency IC50 (nM) (in A673 cells)
[4] = A673 cells, 72 hours, read-out: A673 IC50
[5] = ATP 0.3 μM, read-out: CDK12 IC50
[6] = read-out: CKD12 Biochemical Potency IC50

Row | SMILES | Cyclin K Degrader Activity (A673 potency shift + MLN4924) (A673 cells [1]) | Ratio of Biochemical Potency:Cellular Potency (A673 cells [2]) | IC50 (A673 cells [2]; [3]) | IC50 (A673 cells [2]; [4]) | IC50 (Human CDK12 wt/CycK; [5]) | CDK7/CDK12 (Human CDK12 wt/CycK) | IC50 (Human CDK12 wt/CycK; [6]) | IC50 (Human CDK7/CycH/MAT1)
1 | O[C@H]1CNCC[C@@H]1CNc1cc(NCc2ccc(-c3ccccn3)cc2F)n2ncc(C3CC3)c2n1 [PPA-020] | +++ (>5 fold change.) | 30.00 | 3.3 nM | 3.3 nM | 99 nM | 3.1 | 99 nM | 311 nM
2 | c1ccc(-c2ccc(CNc3cc(N[C@H]4CCNC4)nc4c(C5CC5)cnn34)cc2)nc1 [PPA-037] | +++ (>5 fold change.) | 40.00 | 0.7 nM | 0.7 nM | 28 nM | 8.9 | 28 nM | 250 nM
3 | CN(c1cc(NCc2ccc(-c3ccccn3)cc2)n2ncc(C3CC3)c2n1)C1CCNCC1 [PPA-039] | + (>1 and ≤2 fold change.) | 60.36 | 2.8 nM | 2.8 nM | 169 nM | 12.4 | 169 nM | 2090 nM
4 | c1ccc(-c2ccc(CNc3cc(NCC4CCNCC4)nc4c(C5CC5)cnn34)cc2)nc1 [PPA-040] | +++ (>5 fold change.) | 36.78 | 20.2 nM | 20.2 nM | 743 nM | 9.3 | 743 nM | 6920 nM
5 | c1ccc(-c2ccc(CNc3cc(N[C@H]4CCCNC4)nc4c(C5CC5)cnn34)cc2)nc1 [PPA-044] | +++ (>5 fold change.) | 18.89 | 2.7 nM | 2.7 nM | 51 nM | 6.6 | 51 nM | 338 nM
6 | c1ccc(-c2ccc(CNc3cc(NC4CNC4)nc4c(C5CC5)cnn34)cc2)nc1 [PPA-047] | ++ (>2 and ≤5 fold change.) | 1.79 | 17.3 nM | 17.3 nM | 31 nM | 28.8 | 31 nM | 892 nM
7 | c1ccc(-c2ccc(CNc3cc(OC4CNC4)nc4c(C5CC5)cnn34)cc2)nc1 [PPA-049] | +++ (>5 fold change.) | 4.64 | 6.9 nM | 6.9 nM | 32 nM | 30.7 | 32 nM | 982 nM
8 | c1ccc(-c2ccc(CNc3cc(OCC4CNC4)nc4c(C5CC5)cnn34)cc2)nc1 [PPA-055] | ++ (>2 and ≤5 fold change.) | 5.38 | 24.9 nM | 24.9 nM | 134 nM | 17.8 | 134 nM | 2390 nM
9 | c1ccc(-c2ccc(CNc3cc(C4CNC4)nc4c(C5CC5)cnn34)cc2)nc1 [PPA-058] | +++ (>5 fold change.) | 29.57 | 6.9 nM | 6.9 nM | 204 nM | 25.8 | 204 nM | 5260 nM
10 | O[C@H]1CNCC[C@@H]1CNc1cc(NCc2ccc(-c3ccccc3)cc2)n2ncc(C3CC3)c2n1 [PPA-059] | +++ (>5 fold change.) | 12.54 | 12.6 nM | 12.6 nM | 158 nM | 4.0 | 158 nM | 637 nM
11 | c1ccc(-c2ccc(CNc3cc(O[C@@H]4CCNC4)nc4c(C5CC5)cnn34)cc2)nc1 [PPA-060] | +++ (>5 fold change.) | 26.55 | 2.9 nM | 2.9 nM | 77 nM | 37.3 | 77 nM | 2870 nM
